Read-outs that look alike come from different tables or passages of the source.
Tests used:
[1] = ΔlogD parameter (logDapp oct/buf − logDapp hex/buf); format: physicochemical; settings: 310.2 K; pH 7.4; cyclodextrin in buffer phase as in the label
Method: Apparent distribution coefficients of the compounds were measured in two systems: 1-octanol/buffer pH 7.4 and n-hexane/buffer pH 7.4 by the shake-flask technique at 310.2 ± 0.5 K in the absence (for IPN, INZ and iNAM) and in the presence of cyclodextrins (HP-β-CD and M-β-CD) in the aqueous phase (for IPN only). The concentrations of cyclodextrins were: 0.0115 M, 0.025 M and 0.035 M. The experiments were carried out according to the literature. In brief, the following experimental procedure was performed. Aqueous buffer pH 7.4 and organic solvent (1-octanol or n-hexane) were mixed during 48 h to obtain mutually saturated phases. The stock solutions containing the drug were prepared in buffer pH 7.4 saturated with the organic solvent. Both aliquots of the aqueous stock solution and organic solvent were placed in screwed glass vials and mixed at 310.2 ± 0.5 K during 3 days. The concentrations of the stock solutions were approximately 6.0 × 10^−3 M for both systems. […] The drug concentrations were determined using spectrophotometer (Cary-50 Varian, Palo Alto, CA, USA, Software Version 3.00 (339)). […] The distribution coefficients were calculated using the following equation:(6) DappOrg/buf=C2Org/buf⋅V^buf/Org/C2buf/Org⋅V^Org/buf where DappOrg/buf is the distribution coefficient calculated from the concentrations of the compounds expressed in molar scale, C2Org/buf and C2buf/Org are the molar concentrations of the drug in the mutually saturated organic solvent/buffer and buffer/organic solvent phases, respectively, and V^buf/Org and V^Org/buf are the volumes of the saturated buffer and organic solvent phases, respectively. […] As Abraham et al. stated, the difference between the distribution parameters in these systems ( ΔlogD ) can be applied to assess the specific interactions including a hydrogen-bonding impact to the drug transport properties and can be calculated as follows:(7) ΔlogD=logDappoct/buf−logDapphex/buf

[2] = Shake-flask distribution in the n-hexane/buffer pH 7.4 system; format: physicochemical; settings: for logDapphex/buff / Dapphex/buff ·10^4: 310.2 K; for logDapphex/buff: cyclodextrin in buffer phase as in the label; for Dapphex/buff ·10^4: value = D·10^4, cyclodextrin in buffer phase as in the label; for Molar concentration C2 buf/hex ∙10^3 (aqueous phase): V(hex):V(buf)= 6:3 without and 10:3 with cyclodextrins, molar concentration × 10^3
Method: (§1) Apparent distribution coefficients of the compounds were measured in two systems: 1-octanol/buffer pH 7.4 and n-hexane/buffer pH 7.4 by the shake-flask technique at 310.2 ± 0.5 K in the absence (for IPN, INZ and iNAM) and in the presence of cyclodextrins (HP-β-CD and M-β-CD) in the aqueous phase (for IPN only). The concentrations of cyclodextrins were: 0.0115 M, 0.025 M and 0.035 M. The experiments were carried out according to the literature. In brief, the following experimental procedure was performed. Aqueous buffer pH 7.4 and organic solvent (1-octanol or n-hexane) were mixed during 48 h to obtain mutually saturated phases. The stock solutions containing the drug were prepared in buffer pH 7.4 saturated with the organic solvent. Both aliquots of the aqueous stock solution and organic solvent were placed in screwed glass vials and mixed at 310.2 ± 0.5 K during 3 days. The concentrations of the stock solutions were approximately 6.0 × 10^−3 M for both systems. The volumes of the phases were 3:3 in the 1-octanol/buffer pH 7.4 systems and 6:3 and 10:3 in the n-hexane/buffer pH 7.4 systems, without and with cyclodextrins, respectively. After mixing, the equilibrium was achieved; the vials were maintained at 310.2 ± 0.5 K, and the phases were separated from each other. The drug concentrations were determined using spectrophotometer (Cary-50 Varian, Palo Alto, CA, USA, Software Version 3.00 (339)). The experiments were carried out at least four-fold with an accuracy of 2–4%. The distribution coefficients were calculated using the following equation:(6) DappOrg/buf=C2Org/buf⋅V^buf/Org/C2buf/Org⋅V^Org/buf where DappOrg/buf is the distribution coefficient calculated from the concentrations of the compounds expressed in molar scale, C2Org/buf and C2buf/Org are the molar concentrations of the drug in the mutually saturated organic solvent/buffer and buffer/organic solvent phases, respectively, and V^buf/Org and V^Org/buf are the volumes of the saturated buffer and organic solvent phases, respectively. In addition, the ΔlogD parameters were estimated taking into account the distribution coefficients both in the 1-octanol/buffer pH 7.4 and n-hexane/buffer H 7.4 systems. As Abraham et al. stated, the difference between the distribution parameters in these systems ( ΔlogD ) can be applied to assess the specific interactions including a hydrogen-bonding impact to the drug transport properties and can be calculated as follows:(7) ΔlogD=logDappoct/buf−logDapphex/buf

[3] = Shake-flask solubility in 1-octanol and dissolution thermodynamics; format: physicochemical; settings: for solubility higher in 1-octanol than in n-hexane: 310.2 K, ratio of molar solubilities
Method: (§2) The solubility of the investigated drugs in 1-octanol and n-hexane was determined by the shake-flask technique. To this end, the glass vials containing the solutions with the excess amount of the compound were placed in an air thermostat and stirred at a predetermined temperature for no less than 24 h (equilibrium state). After this, the suspensions were left for 5 h or more to precipitate the undissolved drug and centrifuged (Biofuge pico, Thermo Electron LED GmbH, Langenselbold, Germany) at a predetermined temperature during 20 min (10,000 rpm). The aliquots of the clear solutions were taken and examined via a spectrophotometer (Cary-50 Varian, Palo Alto, CA, USA, Software Version 3.00 (339)). The molar concentrations of the compounds in the solvents were calculated using calibration curves at the appropriate wavelength characteristic for each substance. The experimental results were reported as an average of at least three replicated experiments with an accuracy of 2–4%. In order to evaluate the thermodynamic parameters of the IPN dissolution in 1-octanol and n-hexane, the molar solubility ( S2 ) was recalculated to the mole fraction ( X2 ) by the equation:(1) X2=M2S2/S2(M1−M2)+1000ρ, where M1 and M2 are the molar masses of IPN and organic solvent, respectively, and ρ (g∙cm^−3) is the density of the pure solvents. The linear functions describing the temperature dependences of the solubility within the temperature interval from 293.2 ± 0.5 K to 313.2 ± 0.5 K for both organic solvents were derived:(2) lnX2=A+B/T
(§3) The apparent solution enthalpies ΔHsol0 were determined by the van’t Hoff equation:(3) ∂(lnX2)/∂T=ΔHsol0/RT^2
(§4) The apparent dissolution Gibbs energies ( ΔGsol ) and entropies ( ΔSsol ) were calculated at a standard temperature of 298.2 K and 310.2 K:(4) ΔGsol298.2/310.2=−RT(lnX2298.2/310.2) (5) ΔGsol298.2/310.2=ΔHsol0−TΔSsol298.2/310.2 where R is the universal gas constant.

[4] = PermeaPad barrier, 310.2 K, cited from earlier work
[5] = parameters: method as in doi:10.1016/j.jct.2015.08.022; settings: cited from earlier work
[6] = Shake-flask solubility in n-hexane and dissolution thermodynamics; format: physicochemical; settings: T 310.2 K; value = S2 × 10^3
Method: as §2, §3, §4

[7] = Shake-flask distribution in the 1-octanol/buffer pH 7.4 system; format: physicochemical; settings: for Dappoct/buff / logDappoct/buff: 310.2 K, cyclodextrin in buffer phase as in the label; for Molar concentration C2 buf/oct ∙10^3 (aqueous phase) / Molar concentration C2 oct/buf ∙10^3 (organic phase): V(oct):V(buf)= 3:3, molar concentration × 10^3
Method: as §1

[8] = Membrane permeability in Franz diffusion cell; format: in vitro ADME; settings: 310.2 K
Method: Membrane permeability coefficients of the studied drugs were measured in the Franz diffusion cell of vertical type (PermeGear, Inc., Hellertown, PA, USA) with 7 mL/1 mL volumes of the donor and acceptor solutions through the reverse dialysis set up. The PermeaPad barrier (PHABIOC, Fritz-Souchon-Str.27 32339 Espelkamp Germany, www.innome.de) (0.785 cm^2 effective surface area) was mounted between the donor and acceptor chambers of the diffusion cell. The temperature was maintained at 310.2 ± 0.5 K throughout the experiment. Samples of 0.5 mL were withdrawn each 30 min from the acceptor solution and replaced with an equal amount of fresh buffer. Permeability experiments lasted over five hours in all cases. The solutions concentrations were analyzed via spectrophotometer (Spectramax 190; Molecular Devices Corporation, San Jose, CA, USA) in 96-well UV black plates (Costar) at a wavelength of 264 nm and 266 nm for IPN and INZ/iNAM, respectively. The dependences of the amount of the permeated drug over the surface area (dQ/A) on time (t) were plotted and flux (J) across the membrane was calculated by the equation:(11) J=dQ/A×dt The apparent permeability coefficients (Papp) were determined by normalizing the flux measured over the concentration of the drug in the donor compartment (C0) by the equation:(12) Papp=J/C0 Each permeability experiment was carried out in triplicate.
Similarly to the distribution, the permeability coefficients were obtained in the absence (for IPN, and iNAM) and in the presence of cyclodextrins (HP-β-CD and M-β-CD) (for IPN only) in the donor solution. The concentrations of cyclodextrins were 0.0115 M, 0.025 M and 0.035 M. The permeability coefficient for INZ through the PermeaPad barrier was determined in our previous investigation and taken in the present study for the sake of comparison.

Structure (SMILES) | ΔlogD [1] | logDapphex/buff [2] | Dapphex/buff ·10^4 [2] | Molar concentration C2 buf/hex ∙10^3 (aqueous phase) [2] | solubility higher in 1-octanol than in n-hexane [3] | Papp∙10^5 ([4]; pH 7.4, value = Papp × 10^5) | permeability coefficient (Papp) ([4]; without cyclodextrins) | TΔSsol298.2 ([5]; 1-octanol, 298.2 K) | ΔGsol298.2 ([5]; 1-octanol, 298.2 K) | ΔHsol298.2 ([5]; 1-octanol, 298.2 K) | Molar solubility S2 × 10^1 in 1-Octanol ([5]; T 310.2 K, value = S2 × 10^1) | Molar solubility S2 × 10^3 in n-Hexane [6] | Dappoct/buff [7] | logDappoct/buff [7] | Molar concentration C2 buf/oct ∙10^3 (aqueous phase) [7] | Molar concentration C2 oct/buf ∙10^3 (organic phase) [7] | steady penetrate rate - flux J∙10^4 ([8]; PermeaPad barrier, pH 7.4, printed value = J × 10^4, cyclodextrin in donor solution as in the label) | Papp∙10^5 ([8]; PermeaPad barrier, pH 7.4, value = Papp × 10^5, cyclodextrin in donor solution as in the label) | Papp at 5 h ([8]; pH 7.4, PermeaPad barrier, without cyclodextrins, read-out: permeability coefficient (Papp)) | Molar solubility S2 × 10^1 in 1-Octanol ([3]; T 310.2 K, value = S2 × 10^1)
NNC(=O)c1ccncc1 [INZ, isonicotinic acid hydrazide] | 2.88 | −3.083 | 8.254 ± 0.188 ·10^4 | 9.54 ∙10^3 | 130 fold | 1.44±0.08 ∙10^5 (cm∙s‐1) | 14.4 ×10⁻⁶ cm/s | 2.56 kcal/mol | 3.32 kcal/mol | 5.88 kcal/mol | ^a 1.78 ± 0.04 × 10^1 (M) | 1.37 ± 0.05 × 10^3 (M) | 0.633 ± 0.021 | −0.199 | 5.31 ∙10^3 | 3.36 ∙10^3 |  |  |  | 
NC(=O)c1ccncc1 [iNAM, pyridine-4-carboxylic acid amide] | 2.89 | −3.241 | 5.742 ± 0.172 ·10^4 | 8.64 ∙10^3 | 115 fold |  |  |  |  |  |  | 1.10 ± 0.04 × 10^3 (M) | 0.446 ± 0.013 | −0.351 | 6.33 ∙10^3 | 2.83 ∙10^3 | 0.59 ∙10^4 (μM∙cm‐2∙s‐1) | 0.73±0.04 ∙10^5 (cm∙s‐1) | 7.3 ×10⁻⁶ cm/s | 1.26 ± 0.02 × 10^1 (M)
